Measured values as given in ChEMBL document CHEMBL4680312 (Bioorg Med Chem, 2021).
Calls of active or inactive are those of the source. No cut-off for these calls is given here.

Key:
Assay type in all cases: cell-based
Histamine H3 receptor [1] = target: T1, Histamine H3 receptor (Homo sapiens, UniProt Q9Y5N1); assay: Displacement of [3H]-Histamine from human histamine 3 receptor transfected in HEK293T cells incubated for 16 hrs by liquid scintillation counter analysis
Histamine H4 receptor [2] = target: T2, Histamine H4 receptor (Homo sapiens, UniProt Q9H3N8); assay: Displacement of [3H]-Histamine from human histamine 4 receptor transfected in HEK293T cells incubated for 16 hrs by liquid scintillation counter analysis
Histamine H3 receptor [3] = target: T1, Histamine H3 receptor; assay: Antagonist activity at human histamine 3 receptor transfected in human HEK293T cells assessed as reduction in histamine-induced activity at 10 uM incubated for 30 mins followed by histamine stimulation and measured immediately by BRET assay
Histamine H3 receptor [4] = target: T1, Histamine H3 receptor; assay: Activation of human histamine 3 receptor transfected in human HEK293T cells at 10 uM measured after 5 mins by BRET assay
Histamine H4 receptor [5] = target: T2, Histamine H4 receptor; assay: Activation of human histamine 4 receptor transfected in human HEK293T cells measured after 5 mins by BRET assay; details: filed as partial agonist, dose 0.01-10 µM
Histamine H4 receptor [6] = target: T2, Histamine H4 receptor; assay: Antagonist activity at human histamine 4 receptor transfected in human HEK293T cells assessed as reduction in histamine-induced activity at 10 uM incubated for 30 mins followed by histamine stimulation and measured immediately by BRET assay; details: filed as antagonist

T1 sequence (Q9Y5N1 whole entry): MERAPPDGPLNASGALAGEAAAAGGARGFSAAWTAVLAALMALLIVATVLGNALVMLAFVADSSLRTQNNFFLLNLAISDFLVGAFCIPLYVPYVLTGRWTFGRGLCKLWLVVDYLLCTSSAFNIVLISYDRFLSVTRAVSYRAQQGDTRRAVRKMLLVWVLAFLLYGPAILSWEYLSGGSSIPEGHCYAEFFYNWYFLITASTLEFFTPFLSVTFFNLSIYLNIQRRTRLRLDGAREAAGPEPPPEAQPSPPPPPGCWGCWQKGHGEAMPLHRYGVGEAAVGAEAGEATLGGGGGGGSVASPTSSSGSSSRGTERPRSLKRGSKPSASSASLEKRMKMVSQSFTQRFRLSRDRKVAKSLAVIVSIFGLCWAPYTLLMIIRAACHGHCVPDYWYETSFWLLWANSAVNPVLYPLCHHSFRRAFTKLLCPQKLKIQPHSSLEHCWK

| Structure (SMILES) | Ki (Histamine H3 receptor [1]) | Ki (Histamine H4 receptor [2]) | Activity (Histamine H3 receptor [3]; filed as antagonist) | Activity (Histamine H3 receptor [4]) | Activity (Histamine H4 receptor [5]) | Activity (Histamine H4 receptor [6]) | Activity (Histamine H3 receptor [3]) |
| --- | --- | --- | --- | --- | --- | --- | --- |
| c1ccc(CN2CCN(CC3Cc4ccccc4O3)CC2)cc1 (stereo unspecified) | > 10 µM | > 10 µM |  |  |  |  |  |
| CN1CCN(CC2Cc3cc(C(C)(C)C)ccc3O2)CC1 (stereo unspecified) | 0.794 µM | > 10 µM |  |  |  |  |  |
| CN1CCN(Cc2ccc3c(c2)CCO3)CC1 | > 10 µM | > 10 µM |  |  |  |  |  |
| CN1CCN(Cc2cc3ccccc3o2)CC1 | > 10 µM | > 10 µM |  |  |  |  |  |
| CC(C)(C)c1ccc2c(c1)CC(CN1CCN(c3ccccc3)CC1)O2 (stereo unspecified) | > 10 µM | > 10 µM |  | inactive |  |  | inactive |
| c1ccc(-c2ccc3c(c2)CC(CN2CCN(c4ccccc4)CC2)O3)cc1 (stereo unspecified) | > 10 µM | > 10 µM |  |  |  |  |  |
| O=C(c1cc2ccccc2o1)N1CCN(c2ccccc2)CC1 | > 10 µM | > 10 µM |  |  |  |  |  |
| CN1CCN(CC2Cc3cc(Cl)ccc3O2)CC1 (stereo unspecified) | 0.794 µM | 0.794 µM |  |  |  |  |  |
| CN1CCN(C(=O)c2cc3ccccc3o2)CC1 | > 10 µM | 0.0794 µM |  |  | Dose-dependent effect | Active |  |
| COc1ccc2c(c1)CC(CN1CCN(C)CC1)O2 (stereo unspecified) | 0.794 µM | > 10 µM |  |  |  |  |  |
| c1ccc(-c2ccc3c(c2)CC(CN2CCNCC2)O3)cc1 (stereo unspecified) | 0.631 µM | > 10 µM |  | inactive |  |  | inactive |
| CN1CCN(C(=O)c2nc3ccc(Cl)cc3[nH]2)CC1 |  |  |  |  |  | Active |  |

Further lines, with some results ahead:

| Ki (Histamine H3 receptor [1]) | Ki (Histamine H4 receptor [2]) | Activity (Histamine H3 receptor [3]; filed as antagonist) | Activity (Histamine H3 receptor [4]) | Activity (Histamine H4 receptor [5]) | Activity (Histamine H4 receptor [6]) | Structure (SMILES) | Activity (Histamine H3 receptor [3]) |
| --- | --- | --- | --- | --- | --- | --- | --- |
|  | > 10 µM |  |  |  |  | C=CCN1CCN(CC2Cc3ccccc3O2)CC1 (stereo unspecified) |  |
| 0.00631 µM | > 10 µM | Active | inactive |  |  | C=CCN1CCN(CC2Cc3cc(OC)ccc3O2)CC1 (stereo unspecified) |  |
| 0.0158 µM | > 10 µM | Active | inactive |  |  | C=CCN1CCN(CC2Cc3cc(C(C)(C)C)ccc3O2)CC1 (stereo unspecified) |  |
| 0.00398 µM | > 10 µM | Active | inactive |  |  | C=CCN1CCN(CC2Cc3cc(-c4ccccc4)ccc3O2)CC1 (stereo unspecified) |  |
| 0.0398 µM | > 10 µM | Active | inactive |  |  | CN1CCN(CC2Cc3cc(-c4ccccc4)ccc3O2)CC1 (stereo unspecified) |  |
